According to US20110313044A1, “Polymorphs of Suberoylanilide Hydroxamic Acid” (URQUIMA S.A., priority 2010, published 2011):
Converted amounts (≈) assume the structure as drawn. Each block holds one molecule with its values, some of them ahead of it.

Key:
physchem = details: thermodynamic from solid
[1] = Physical stability of crystalline forms at room temperature (PXRD, DSC characterisation)
Source text: The crystalline products obtained have been characterised by XPRD (FIG. 1 and Table 1) and DSC (FIG. 2).

Hygroscopicity test = type: physicochemical
[2] = Solubility test Form α vs Form I; details: for solubility: thermodynamic from solid

solubility (physchem; aqueous buffer): 0.1 mg/mL (≈ 0.378 mM) | solubility (physchem; organic solvent or mixture): 21.8 mg/mL (≈ 82.5 mM)
Compound: O=C(CCCCCCC(=O)Nc1ccccc1)NO [Form I, suberoylanilide hydroxamic acid]

Polymorph stability [1]: unstable at room temperature
Compound: O=C(CCCCCCC(=O)Nc1ccccc1)NO [Form II, suberoylanilide hydroxamic acid]

Polymorph stability [1]: stable at room temperature
Compound: O=C(CCCCCCC(=O)Nc1ccccc1)NO [Form III, suberoylanilide hydroxamic acid]

Hygroscopicity (Hygroscopicity test): non-hygroscopic | solubility ([2]; HCl 2M, aqueous buffer): 0.19 mg/mL (≈ 0.719 mM) | Solubility versus Form I ([2]; methanol and HCl 2M, in words): higher solubility | solubility ([2]; methanol, organic solvent or mixture): 30 mg/mL (≈ 113 mM) | Polymorph stability [1]: stable at room temperature
Compound: O=C(CCCCCCC(=O)Nc1ccccc1)NO [Form α, suberoylanilide hydroxamic acid]
